Reference: PubChem BioAssay (NCI)
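How tested: cells in 96-well plates exposed to compound for 48 hours at five concentrations. GI50: concentration for 50% inhibition of growth. TGI: total growth inhibition.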

Columns and labels:
Assay in all cases: inhibition of tumour cell growth, NCI panel, 48 h
[1] = system: ACHN renal
[2] = system: HOP-62 NSCLC
[3] = system: CAKI-1 renal
[4] = system: KM12 colon
[5] = system: NCI-H226 lung
[6] = system: UACC-257 melanoma
[7] = system: M14 melanoma
[8] = system: U251 CNS
[9] = system: HCC-2998 colon
[10] = system: HCT-116 colon
[11] = system: HT29 colon
[12] = system: SNB-75 CNS
[13] = system: K-562 leukemia
[14] = system: UO-31 renal
[15] = system: LOX IMVI melanoma
[16] = system: HL-60(TB) leukemia
[17] = system: KM20L2 colon
[18] = system: TK-10 renal
[19] = system: SK-OV-3 ovarian
[20] = system: OVCAR-4 ovarian
[21] = system: OVCAR-5 ovarian
[22] = system: SN12C renal
[23] = system: EKVX NSCLC
[24] = system: IGROV1 ovarian
[25] = system: MALME-3M melanoma
[26] = system: SW-620 colon
[27] = system: A549 NSCLC
[28] = system: SK-MEL-2 melanoma
[29] = system: SF-295 CNS
[30] = system: COLO 205 colon
[31] = system: NCI-H522 lung
[32] = system: SK-MEL-28 melanoma
[33] = system: 786-0 renal
[34] = system: SK-MEL-5 melanoma
[35] = system: SNB-19 CNS
[36] = system: HOP-92 NSCLC
[37] = system: SF-539 CNS
[38] = system: OVCAR-8 ovarian
[39] = system: RPMI-8226 leukemia
[40] = system: NCI-H23 lung
[41] = system: UACC-62 melanoma
[42] = system: OVCAR-3 ovarian
[43] = system: MOLT-4 leukemia
[44] = system: SF-268 CNS
[45] = system: HCT-15 colon

For `CC(=O)[C-](C(C)=O)c1ccccc1.CC(=O)[C-](C(C)=O)c1ccccc1.CC[O-].CC[O-].[Ti+4]`, the GI50 [1] was > 100 µM, the TGI [1] was > 100 µM and the GI50 [2] was > 100 µM. For the same compound, the TGI [2] was > 100 µM, the GI50 [3] was > 100 µM and the TGI [3] was > 100 µM. The GI50 [4] was > 100 µM, the TGI [4] was > 100 µM and the GI50 [5] was > 100 µM. The TGI [5] was > 100 µM, the GI50 [6] was > 100 µM and the TGI [6] was > 100 µM. The GI50 [7] was > 100 µM, the TGI [7] was > 100 µM and the GI50 [8] was > 100 µM. The TGI [8] was > 100 µM, the GI50 [9] was > 100 µM and the TGI [9] was > 100 µM. For the same compound, the GI50 [10] was > 100 µM, the TGI [10] was > 100 µM and the GI50 [11] was > 100 µM. For the same compound, the TGI [11] was > 100 µM, the GI50 [12] was > 100 µM and the TGI [12] was > 100 µM. For the same compound, the GI50 [13] was > 100 µM, the TGI [13] was > 100 µM and the GI50 [14] was > 100 µM. The TGI [14] was > 100 µM, the GI50 [15] was > 100 µM and the TGI [15] was > 100 µM. The GI50 [16] was > 100 µM, the TGI [16] was > 100 µM and the GI50 [17] was > 100 µM. The TGI [17] was > 100 µM, the GI50 [18] was > 100 µM and the TGI [18] was > 100 µM. For the same compound, the GI50 [19] was > 100 µM, the TGI [19] was > 100 µM and the GI50 [20] was > 100 µM. The TGI [20] was > 100 µM, the GI50 [21] was > 100 µM and the TGI [21] was > 100 µM. The GI50 [22] was > 100 µM, the TGI [22] was > 100 µM and the GI50 [23] was > 100 µM. For the same compound, the TGI [23] was > 100 µM, the GI50 [24] was > 100 µM and the TGI [24] was > 100 µM. For the same compound, the GI50 [25] was > 100 µM, the TGI [25] was > 100 µM and the GI50 [26] was > 100 µM. For the same compound, the TGI [26] was > 100 µM, the GI50 [27] was > 100 µM and the TGI [27] was > 100 µM. The GI50 [28] was > 100 µM, the TGI [28] was > 100 µM and the GI50 [29] was > 100 µM. The TGI [29] was > 100 µM, the GI50 [30] was > 100 µM and the TGI [30] was > 100 µM. The GI50 [31] was > 100 µM, the TGI [31] was > 100 µM and the GI50 [32] was > 100 µM. For the same compound, the TGI [32] was > 100 µM, the GI50 [33] was > 100 µM and the TGI [33] was > 100 µM. For the same compound, the GI50 [34] was > 100 µM, the TGI [34] was > 100 µM and the GI50 [35] was > 100 µM. The TGI [35] was > 100 µM, the GI50 [36] was > 100 µM and the TGI [36] was > 100 µM. The GI50 [37] was > 100 µM, the TGI [37] was > 100 µM and the GI50 [38] was > 100 µM. For the same compound, the TGI [38] was > 100 µM, the GI50 [39] was > 100 µM and the TGI [39] was > 100 µM. The GI50 [40] was > 100 µM, the TGI [40] was > 100 µM and the GI50 [41] was > 100 µM. The TGI [41] was > 100 µM, the GI50 [42] was > 100 µM and the TGI [42] was > 100 µM. For the same compound, the GI50 [43] was > 100 µM, the TGI [43] was > 100 µM and the GI50 [44] was > 100 µM. For the same compound, the TGI [44] was > 100 µM, the GI50 [45] was > 100 µM and the TGI [45] was > 100 µM.
